Values quoted from earlier work in patent US7407949B2, “Benzamide derivatives as oxytocin agonists and vasopressin antagonists” (priority 2003, dated 2008).

Target: T1, V1a vasopressin receptor (Homo sapiens, UniProt P37288)
T1 construct: host or cells: patients (in vivo clinical study)
Settings: dysmenorrhea patients, compared to placebo

T1 sequence (P37288 whole entry): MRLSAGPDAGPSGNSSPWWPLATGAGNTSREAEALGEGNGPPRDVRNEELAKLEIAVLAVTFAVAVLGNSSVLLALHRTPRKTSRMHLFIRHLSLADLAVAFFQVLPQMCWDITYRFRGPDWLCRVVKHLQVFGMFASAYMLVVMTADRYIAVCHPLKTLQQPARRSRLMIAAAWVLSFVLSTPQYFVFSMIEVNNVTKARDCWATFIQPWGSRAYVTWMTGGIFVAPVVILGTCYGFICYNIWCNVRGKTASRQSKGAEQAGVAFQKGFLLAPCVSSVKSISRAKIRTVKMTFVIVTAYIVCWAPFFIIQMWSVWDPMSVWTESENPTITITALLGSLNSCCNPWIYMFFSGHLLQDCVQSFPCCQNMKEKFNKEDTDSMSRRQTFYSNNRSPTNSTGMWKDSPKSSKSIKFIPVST

For `COc1ccc(S(=O)(=O)N2c3ccc(Cl)cc3[C@](O)(c3ccccc3Cl)[C@@H]2C(=O)N2CCC[C@H]2C(N)=O)cc1OC` [SR49059], the “amount of additional pain-killer taken” value is listed as “dose-related decrease in the amount of additional pain-killer taken” and the pain is listed as “dose-related decrease in pain”.
